Results from patent US20240150342A1, “ESTROGEN-RELATED RECEPTOR ALPHA MODULATORS” (LEAD PHARMA HOLDING B.V., priority 2019, published 2024).

How the values were obtained:
[1] = molecular target: T1, ERRα ligand binding domain (ERRα-LBD) (Homo sapiens, UniProt P11474); test: ERRα AlphaScreen Assay; type: biochemical; details: disruption of binding of ERRα-LBD protein to biotin-PGC1α-3 co-activator peptide; read-out: mean pIC50 (converted)
T1 construct: made in house; host or cells: E. coli
T1 sequence (P11474 193-421 limits assumed): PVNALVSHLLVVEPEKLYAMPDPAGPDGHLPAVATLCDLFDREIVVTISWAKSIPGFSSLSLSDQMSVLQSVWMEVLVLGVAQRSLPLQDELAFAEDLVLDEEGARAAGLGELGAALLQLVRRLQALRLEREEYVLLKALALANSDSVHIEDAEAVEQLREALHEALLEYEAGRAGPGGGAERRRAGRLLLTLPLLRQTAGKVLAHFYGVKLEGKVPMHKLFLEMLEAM
In short: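 E. coli-expressed 6His-SUMO-ERRα-LBD (0.81 nM) incubated with compound and donor/acceptor beads 1 h, then 2 h with 15 nM biotin-PGC1α-3 peptide (aa 202–220); room temperature, Tris pH 7.5 buffer with TCEP, 1% DMSO, triplicates. Loss of co-activator binding read by AlphaScreen; four-parameter dose-response fit.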

B16F10 melanoma = test: B16F10 Melanoma Syngeneic Mouse Model; type: in vivo; details: 30 mpk p.o., q.d., B16F10 allograft in C57BL/6 mice
Procedure: Example inhibitor 80 was tested for its ability to inhibit tumor growth in a B16F10 melanoma syngeneic mouse model. Cell line and tumor model: B16F10 melanoma cell line derived allograft model in C57BL/6 mice.
Mouse B16F10 melanoma cells were sourced from American Type Culture Collection (ATCC), USA. Cells were grown in DMEM (Invitrogen, Catalogue No. 31600-034) supplemented with 10% FBS (Invitrogen, Catalogue No. 10438-026), and 1% penicillin streptomycin (Thermo Fisher Scientific, Catalogue No. 15140-122). To establish allografts, the cells were harvested by trypsinization when they reach around 70 to 80% confluence and 0.1 million B16F10 cells were suspended in 50 μl of serum free medium and mixed at 1:1 ratio with matrigel before implanting subcutaneously into the dorsal right flank of mice using a 1 mL BD syringe attached to a 24-gauge needle.
B16F10 tumor grafts were measured after 5 days of cell inoculation once they became palpable. […]
Tumor dimensions—length (I) and breadth (b)—were measured by caliper on the day of animal randomization based on tumor volume (Day 1) and thrice weekly thereafter until study termination. Tumor volumes were calculated using the formula b^2*I*0.52 where I=length, b=breadth (Dusan Djokovic et al., BMC Cancer, 2010, 10:641). Tumor growth inhibition was calculated after normalizing the tumor volume on a given day to that on Day 1. […]

full length ERRα = molecular target: T2, full length ERRα (Homo sapiens, UniProt P11474); test: Full Length ERRα Reporter Gene Assay; type: cell-based; details: SK-BR-3 cells, ERRα-RE luciferase reporter, overnight incubation; read-out: mean pIC50 (converted)
T2 construct: an over-expression construct coding full length ERRα; expressed in transfected cells; host or cells: SK-BR-3 cells, transient co-transfection of pLP2124 (pcDNA3.1/Hygro(+) background) and reporter pLP2175
T2 sequence (P11474 1-423): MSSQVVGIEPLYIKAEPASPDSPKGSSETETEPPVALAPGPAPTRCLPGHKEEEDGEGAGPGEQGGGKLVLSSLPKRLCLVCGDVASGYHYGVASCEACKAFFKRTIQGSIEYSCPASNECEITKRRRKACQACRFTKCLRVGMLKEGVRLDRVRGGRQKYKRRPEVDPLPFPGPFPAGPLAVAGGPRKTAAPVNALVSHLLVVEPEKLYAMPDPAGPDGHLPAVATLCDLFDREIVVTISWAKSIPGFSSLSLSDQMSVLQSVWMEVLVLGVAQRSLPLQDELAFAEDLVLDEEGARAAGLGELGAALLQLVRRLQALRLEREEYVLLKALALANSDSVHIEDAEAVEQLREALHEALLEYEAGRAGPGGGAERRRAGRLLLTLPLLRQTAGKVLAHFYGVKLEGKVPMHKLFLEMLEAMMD
From the text: A method was established to quantitatively screen the potency of compounds with inverse agonistic activity on the nuclear receptor ERRα of the human species. The assay allows intra-cellular screening of ERRα inverse agonists in SK-BR-3 cells using an over-expression construct coding full length ERRα and a reporter construct containing an ERRα Response Element (RE) and a luciferase gene for read out. The activity is expressed in logIC50 values and can be used to determine SAR of compound families or to de-select compounds.
In this assay, reporter cells are obtained by transient co-transfection of two constructs in SK-BR-3 cells using standard transfection techniques. The first construct contains a response element of the nuclear receptor ERRα (Plasmid pLP2175, Reporter construct ERRα-RE/luc2P, cloned variant of ERRα_v2_synthRE, Switchgear Genomics, Catalog Number S900089). This sequence drives the transcription of the luciferase reporter gene in response to binding of an ERRα protein encoded by the second construct (Plasmid pLP2124: full length ERRα expression construct using pcDNA3.1/Hygro(+) as background, Invitrogen Catalog Number V87020).
The day after transfection, cells were plated into 96 well plates, the test compound was added and the plates were incubated overnight. Subsequently, the firefly luciferase activity was quantified using luciferase detection reagent and luminescence readout.
Transfection is performed on pre-seeded SK-BR-3 cells in a T175 flask. One transfected T175 flask is sufficient for seeding 3 to 4 MW96 plates the next day, depending on the confluency of the transfected cells.
Two different media are used in this protocol for cell treatment: 1) Culture medium, i.e. McCoy's 5a with phenol red (BioWhittaker Supplier Number 12-688F), 10% FBS and 1× Penstrep.; and, 2) Assay medium, i.e. McCoy's 5a Medium phenol red free (HyClone Product Code SH30270.01) with 2% Charcoal Stripped FBS and 1× Penstrep. Compound dilutions are prepared in assay medium.
Cells are seeded at least 2 days in advance to allow the cells to adhere well to flask before transfection. Cells should be 50-80% confluent at the day of transfection.
SKBR3 cells were transfected with the transcriptional reporter construct pLP2175 and the ERRα expression construct pLP2124 (as described above).
68 μL of Lipofectamine LTX transfection reagent (Invitrogen Catalog Number 15338-100) was added dropwise to 8.9 ml Opti-MEM I Reduced Serum Medium (Gibco Catalog Number 51985-026) and incubated at room temperature for 5 to 20 minutes. 8.9 ml of this reagent mixture was added to 22 μg pLP2175+22 μg pLP2124 (ratio 1:1 and total volume 10 ml), and incubated at room temperature for 25 minutes.
10 minutes before adding the transfection mix to SKBR3 cells in a T175 flask, the culture medium was refreshed with 20 mL culture medium. Subsequently, the 10 mL DNA-Opti-MEM-Lipofectamine mixture was gently added to the cells, followed by overnight (16-24 hours) incubation at 37° C. and 5% CO2.
To harvest SKBR3 cells from a T175 flask, first the medium was removed. Subsequently, cells were washed with Phosphate Buffered Saline (PBS) (Lonza), after which the PBS was removed. To dissociate the cells, 2 ml of TrypLE Express (I nvitrogen) was added to the flask, followed by incubation at 37° C. for 5 minutes. The flask was tapped until cells were detached from the bottom. Cells were collected in 8 mL of culture medium (McCoy's 5a, 10% FBS, penstrep), to achieve a single cell suspension. After cell count, cells were spun down for 5 minutes at 300 g. Next cell pellets were re-suspended to 25000 cells/80 μl assay medium (McCoy's 5a phenol red free, 2% charcoal stripped FBS, penstrep).
For compound screening, the cells were harvested (as described above). 80 μL of cell suspension (25,000 cells) was plated per well into a white, flat bottom, tissue culture treated, 96 well screening plates (Greiner). […]

| SMILES | IC50 [1] | IC50 (full length ERRα) | Tumor Volume (mm^3) Day 13 (B16F10 melanoma) | Tumor Growth Inhibition (%) (B16F10 melanoma; Day 13) |
| --- | --- | --- | --- | --- |
| COC(=O)c1cc(Oc2ccc(C3CC(=O)Nc4n[nH]cc43)cc2OC)cc(C(F)(F)F)c1 (stereo not drawn) [Example 41, methyl 3-(2-methoxy-4-{6-oxo-2H,4H,5H,6H,7H-pyrazolo[3,4-b]pyridin-4-yl}phenoxy)-5-(trifluoromethyl)benzoate] | 10 to 100 nM | ≤ 316 nM |  |  |
| COc1cc(C2CC(=O)Nc3n[nH]cc32)ccc1Oc1cc(C)cc(C(F)(F)F)c1 (stereo not drawn) [Example 63, 4-{3-methoxy-4-[3-methyl-5-(trifluoromethyl)phenoxy]phenyl}-2H,4H,5H,6H,7H-pyrazolo[3,4-b]pyridin-6-one] | ≤ 10 nM | ≤ 316 nM |  |  |
| CCc1ccc(Oc2ccc(-c3cc(=O)[nH]c4n[nH]cc34)cc2OC)c(C(C)(C)C)c1 [Example 67, 4-[4-(2-tert-butyl-4-ethylphenoxy)-3-methoxyphenyl]-2H,6H,7H-pyrazolo[3,4-b]pyridin-6-one] | ≤ 10 nM | ≤ 316 nM |  |  |
| COc1ccc(Oc2ccc(-c3cc(=O)[nH]c4n[nH]cc34)cc2OC)c(C(C)(C)C)c1 [Example 68, 4-[4-(2-tert-butyl-4-methoxyphenoxy)-3-methoxyphenyl]-2H,6H,7H-pyrazolo[3,4-b]pyridin-6-one] | ≤ 10 nM | ≤ 316 nM |  |  |

Now from value to molecule, other results behind:

| IC50 [1] | IC50 (full length ERRα) | SMILES | Tumor Volume (mm^3) Day 13 (B16F10 melanoma) | Tumor Growth Inhibition (%) (B16F10 melanoma; Day 13) |
| --- | --- | --- | --- | --- |
| ≤ 10 nM |  | COc1cc(C2CC(=O)Nc3n[nH]cc32)ccc1Oc1cc(C(F)(F)F)cc(C(F)(F)F)c1 (single isomer, unassigned; (-)) [Example 80, (−)-4-{4-[3,5-bis(trifluoromethyl)phenoxy]-3-methoxyphenyl}-2H,4H,5H,6H,7H-pyrazolo[3,4-b]pyridin-6-one] | 684 ± 82 mm^3 | 64% |
| ≤ 10 nM | ≤ 316 nM | COc1cc(-c2cc(=O)[nH]c3n[nH]cc23)ccc1Oc1ccc(C)cc1C(C)(C)C [Example 69, 4-[4-(2-tert-butyl-4-methylphenoxy)-3-methoxyphenyl]-2H,6H,7H-pyrazolo[3,4-b]pyridin-6-one] |  |  |
| ≤ 10 nM | ≤ 316 nM | COc1cc(-c2cc(=O)[nH]c3n[nH]cc23)ccc1Oc1ccc(Br)cc1C(C)(C)C [Example 70, 4-[4-(4-bromo-2-tert-butylphenoxy)-3-methoxyphenyl]-2H,6H,7H-pyrazolo[3,4-b]pyridin-6-one] |  |  |
